The values that follow come from patent publication US20050026836A1, “Composition for the treatment of damaged tissue” (priority 1999, published 2005).

Common to all, as to assay type: biochemical
Assay [1] has as its target catalytic domain of human MMP-2 (Homo sapiens, UniProt P08253). Kind of assay: MMP-2 fluorogenic inhibition assay. To be noted: read-out: Calculated Ki(nM) MMP-2. The protocol:
(§1) All enzymes were pre-activated at 37° C. with aminophenylmercuric acetate (APMA) or trypsin before being made up to the final concentrations used in the assay.
(§2) For MMP-1, the assay buffer used was 50 mM Tris, 200 mM NaCl, 5 mM CaCl2, 20 μM ZnCl2, 0.05% (w/v) Brij 35, pH 7.5. […] For MMP-13, the assay buffer used was 50 mM Tris, pH 7.5, 200 mM NaCl, 5 mM CaCl2, […] and 0.02% (w/v) Brij 35.
(§3) MMP-2, MMP-3 and MMP-9 inhibition was assayed by incubating activated catalytic domain of human MMP-2, MMP-3 and MMP-9 at 1 nM in assay buffer with 5 μM substrate Mca-Arg-Pro-Lys-Pro-Tyr-Ala-Nva-Trp-Met-Lys(Dnp)-NH2, and six different concentrations of inhibitor. The incubation was performed at 37° C. for 60 minutes.
(§4) For MMP-2, the final assay concentrations of inhibitors used were 1000, 800, 600, 400, 200 and 100 nM. For MMP-3, the final assay concentrations of inhibitors used were 5, 4, 3, 2, 1 and 0.5 nM. For MMP-9 and MMP-14, the final assay concentrations of inhibitors used were 5, 4, 3, 2, 1 and 0.5 μM.
All assays were carried out in a black 96-well plate with a final volume of 100 μl in each well. Inhibitors were dissolved in dimethylsulphoxide (DMSO) to 1 mM. Solutions were then serially diluted in buffer to give the final concentrations shown. […]

Assay [2] concerns the target T1, catalytic domain human MMP-1 (Homo sapiens, UniProt P03956).
T1 construct: made in house
T1 sequence (P03956 100-269 limits assumed): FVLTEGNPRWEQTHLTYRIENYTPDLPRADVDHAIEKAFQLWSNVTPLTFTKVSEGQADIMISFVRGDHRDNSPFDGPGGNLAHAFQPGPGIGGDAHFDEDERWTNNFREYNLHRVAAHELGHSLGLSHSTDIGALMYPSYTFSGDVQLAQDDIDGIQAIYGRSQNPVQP
Kind of assay: MMP-1 fluorogenic inhibition assay. To be noted: * limited by compound solubility; read-out: Calculated Ki(nM) MMP-1. Here is the method:
as §1, §2
The incubation was performed at 37° C. for 60 minutes.
as §4
(§5) All assays were carried out in a black 96-well plate with a final volume of 100 μl in each well. Inhibitors were dissolved in dimethylsulphoxide (DMSO) to 1 mM. Solutions were then serially diluted in buffer to give the final concentrations shown.
(§6) These were estimated using the following equation: IC50=(Ki*[…], where S is the substrate concentration and Km the Michaelis-Menton coefficient. Serine Protease Assays

For assay [3], the target named is T2, catalytic domain of human MMP-3 (Homo sapiens, UniProt P08254).
T2 construct: made in house
Kind of assay: MMP-3 fluorogenic inhibition assay. The protocol:
as §1, §2, §3, §4, §5, §6

One may read the Ki as the equilibrium dissociation constant of an inhibitor or competing ligand from its target.

T2 sequence (P08254 100-272 limits assumed): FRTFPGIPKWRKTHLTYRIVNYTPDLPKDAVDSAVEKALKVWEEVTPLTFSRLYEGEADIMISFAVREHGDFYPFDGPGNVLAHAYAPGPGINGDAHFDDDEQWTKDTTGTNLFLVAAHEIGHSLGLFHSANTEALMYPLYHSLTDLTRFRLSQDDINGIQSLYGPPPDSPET
Chain of catalytic domain of human MMP-2 (P08253 with tags, fused parts or gaps DEL222-396 limits assumed): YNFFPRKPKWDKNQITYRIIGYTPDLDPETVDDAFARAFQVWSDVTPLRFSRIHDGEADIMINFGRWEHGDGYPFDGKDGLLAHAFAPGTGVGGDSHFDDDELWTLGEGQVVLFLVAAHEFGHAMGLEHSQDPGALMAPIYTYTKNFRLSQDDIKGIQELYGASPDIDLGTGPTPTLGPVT

Regarding `COC[C@@H](NC(=O)[C@@H](NC(=O)[C@H](CCCc1ccc(-c2cccc(OC)c2)c(C)c1)CC(=O)O)C(C)(C)C)c1ccccc1` [compound 9454, (3R)-3-({[(1S)-2,2-Dimethyl-1-({[(1S)-2-methoxy-1-phenylethyl]amino}carbonyl)propyl]amino}carbonyl)-6-(3′-methoxy-2-methylbiphen-4-yl)hexanoic acid], the Ki in assay [1] is 35200 nM; in assay [2] it was more than 19400 nM; in assay [3] (read-out: Calculated Ki(nM) MMP-3), 44 nM. In addition, the “Selectivity among MMPs (in words)” value in assay [3] (from Ki values of Table 3 (MMP-1, -2, -3, -9, -13, -14)) is on record as “selective MMP-3 inhibitor”.
